Data reported in PMC11714206, “Massively Parallel Screening of Toll/Interleukin‐1 Receptor (TIR)‐Derived Peptides Reveals Multiple Toll‐Like Receptors (TLRs)‐Targeting Immunomodulatory Peptides” (Advanced Science, 2024).
Blank lines part the entries; values can stand above or below the sequence they belong to.

Biological target: T1, MyD88^TIR (Homo sapiens, UniProt Q99836)
T1 construct: MyD88 (residues 148–296); 6xHis; made in house; host or cells: E. coli BL21 (DE3)
Experiment: T‐Surf phage library (P8 and P3) selection against MyD88^TIR, four rounds, NGS read counts
Format: binding
Conditions: for P8_MyD88 Rank (after) / P8_MyD88 Rank (before): P8 library; for Population: 4th round of selection against MyD88 TIR, share of NGS reads; for P3_MyD88 Rank (after) / P3_MyD88 Rank (before): P3 library
Procedure: T‐Surf libraries were screened against the immobilized TIR domains of two major human TLR adaptor proteins, MAL^TIR and MyD88^TIR, allowing cross‐species selection of TIR‐binding motifs with 190 946 TIR‐derived peptides in a single binding assay (Scheme 1). Enriched phage pools from the fourth round of selection were analyzed using NGS after barcoding the peptide‐coding regions of the phage pools.
Phage display screening was performed by coating two wells of a 96‐well plate (Maxisorp, Thermo Fisher Scientific) with 100 µL of 5 µg mL^−1 TIR domains overnight; then, the coated wells were blocked with 200 µL of blocking buffer (0.2% BSA in PBS) and set aside for 1 h at 4 °C with gentle shaking. Next, 100 µL of the phage library was added to the wells and incubated for 1 h at room temperature (RT; 20 – 22 °C) with gentle shaking. The plate was washed four times with PBS containing 0.5% Tween‐20; the bound phages were eluted by adding 100 µL of 100 mM HCl to each well. The elute was neutralized with 10 µL of 1.0 M Tris‐HCl (pH 11.0). E. coli TG1 cells were grown to the log phase (A600 = ≈0.6), and 1 mL of the culture was incubated with 100 µL of the eluted phages for 30 min at 37 °C, with shaking at 200 rpm. Next, 1 µL of M13KO7 helper phages was added, followed by incubation for 45 min at 37 °C, with shaking. Subsequently, the cells were transferred to 25 mL of 2× yeast extract tryptone/carbenicillin/kanamycin medium and incubated overnight at 37 °C with shaking at 200 rpm. The amplified phages were precipitated with 20% PEG‐8000/2.5 M NaCl to be used for the next round of selection.
The naïve T‐Surf libraries in P8 and P3 and the enriched phage pools after four rounds were barcoded for NGS as previously described.^[ [59] ^] Briefly, 5 µL of the phage pool was used as a template for 20 cycles of a 50 µL PCR reaction using […] each of forward and reverse barcoded primers and PrimeSTAR Max DNA Polymerase. The PCR products were purified using Expin Gel SV (GeneAll). The NGS samples were quantified using qPCR, following the qPCR Quantification Protocol Guide (KAPA Library Quantification kits for Illumina Sequencing Platform), and qualified using the TapeStation High Sensitivity D1000 ScreenTape (Agilent Technologies). The indexed libraries were further sequenced by Macrogen (Seoul, Republic of Korea) using the NovaSeq platform (Illumina) with 100 bp paired‐end reads. The reads were demultiplexed by barcodes and filtered for an average Phred quality score of at least 30, followed by trimming the flanking consensus sequences using Cutadapt (version 2.3). Peptide sequence populations were analyzed according to the read counts.

[1] = selection against MyD88, rank after grouping
[2] = selection against MyD88, rank before grouping
[3] = selection against MyD88 TIR, rank by count after grouping
[4] = selection against MyD88 TIR, rank by count before grouping
[5] = P8_MyD88: rank by count after grouping
[6] = P8_MyD88: rank by count before grouping
[7] = P8_MyD88 pool: P8 T-Surf phage library
[8] = P3_MyD88: rank by count after grouping
[9] = P3_MyD88: rank by count before grouping
[10] = P8_MyD88: rank by NGS read count after grouping
[11] = P8_MyD88: rank by NGS read count before grouping

T1 sequence (Q99836 148-296): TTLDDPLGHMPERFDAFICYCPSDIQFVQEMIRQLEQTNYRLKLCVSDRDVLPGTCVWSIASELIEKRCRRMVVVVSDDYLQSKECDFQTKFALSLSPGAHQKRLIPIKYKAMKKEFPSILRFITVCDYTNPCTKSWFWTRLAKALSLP

Sequence: YASSWWALEELLRILY
P8_MyD88 Rank (after) [1]: 568
P8_MyD88 Rank (before) [2]: 1849

Sequence: YQLVFVHFWMFDGRTA
P8_MyD88 Rank (after) [1]: 518
P8_MyD88 Rank (before) [2]: 2106

Sequence: LTDVANILGYHWIDWE
Rank (after) [5]: 104
Rank (before) [6]: 110
Population [7]: 0.02%

Sequence: DWVCDYLLPDREGPAG
Rank (after) [10]: 984
Rank (before) [11]: 2474

Sequence: DPQDQDWVYERLVSLF
Rank (after) [10]: 936
Rank (before) [11]: 2966

Sequence: APQDLEWFYERLVSLIL
Rank (after) [5]: 431
Rank (before) [6]: 2322

Sequence: FLSYREGLWRLLELSKK
P3_MyD88 Rank (after) [1]: 498
P3_MyD88 Rank (before) [2]: 1376

Sequence: AVDKGIDKIQTPLKNA
Rank (after) [8]: 430
Rank (before) [9]: 1896

Sequence: SSLREGLWRLLELGKK
P3_MyD88 Rank (after) (4R selection against MyD88, rank after grouping): 597
P3_MyD88 Rank (before) (4R selection against MyD88, rank before grouping): 3255

Sequence: GNDVLGRKGLRVGSKD
Rank (after) [8]: 437
Rank (before) [9]: 1875

Sequence: NELVHVWSSKANSLW
P3_MyD88 Rank (after) [3]: 262
P3_MyD88 Rank (before) [4]: 3420

Sequence: ELDFSHFWLFDGQSGKDA
P8_MyD88 Rank (after) [3]: 216
P8_MyD88 Rank (before) [4]: 359

Sequence: YLKWGYPRFWDRLRCA
P3_MyD88 Rank (after) [3]: 216
P3_MyD88 Rank (before) [4]: 1602

Sequence: WVLHKVLQILHAREIY
Rank (after) [10]: 976
Rank (before) [11]: 1390

Sequence: KLDSARMRKVQRLRET
P3_MyD88 Rank (after) [1]: 576
P3_MyD88 Rank (before) [2]: 3706

Sequence: LKEEHCHQALEKAGKL
Rank (after) [8]: 460
Rank (before) [9]: 2535

Sequence: DPQDLEWFYERLVSRF
P8_MyD88 Rank (after) [3]: 266
P8_MyD88 Rank (before) [4]: 2851

Sequence: SSFREGLWSLLELSKN
Rank (after) [8]: 183
Rank (before) [9]: 3200

Sequence: YELAFSHCCLFEGHST
Rank (after) [10]: 1007
Rank (before) [11]: 1925

Sequence: GALDEVRKILYANETM
Rank (after) [10]: 908
Rank (before) [11]: 2280

Sequence: DHHLDLPRGKAIQPDILG
P3_MyD88 Rank (after) [1]: 554
P3_MyD88 Rank (before) [2]: 2014

More lines, now with the values ahead:

P8_MyD88 Rank (after) [3]: 196
P8_MyD88 Rank (before) [4]: 269
Sequence: QSAWALNQLLQIIDWH

Rank (after) [5]: 171
Rank (before) [6]: 192
Population [7]: 0.00617%
Sequence: YYDSRWALDELLKILYANETM

Rank (after) [8]: 138
Rank (before) [9]: 3640
Sequence: KEVEGWRDALTKAANL

Rank (after) [10]: 1013
Rank (before) [11]: 2020
Sequence: YLLRSLFQTLFPRRTE

P8_MyD88 Rank (after) (selection against MyD88, rank by count after grouping): 764
P8_MyD88 Rank (before) (selection against MyD88, rank by count before grouping): 1648
Sequence: WRDALNNISSIFGWVA

Rank (after) [8]: 398
Rank (before) [9]: 3443
Sequence: NELVHEISKKMKIFATI

P8_MyD88 Rank (after) [3]: 238
P8_MyD88 Rank (before) [4]: 2828
Sequence: DPQDLDWLYERLVRLF

P3_MyD88 Rank (after) [3]: 279
P3_MyD88 Rank (before) [4]: 3225
Sequence: SSFREALWRLLGLSEK

Rank (after) [5]: 170
Rank (before) [6]: 200
Sequence: LTEEIVNHILKRLAEL

Rank (after) [5]: 166
Rank (before) [6]: 185
Population [7]: 0.00694%
Sequence: DSDPGSDLLIKIWAAL

Population (P3_MyD88 pool: P3 T-Surf phage library): 0.0032%
Sequence: YELVHVWSSKANSLVG

P8_MyD88 Rank (after) [3]: 225
P8_MyD88 Rank (before) [4]: 426
Sequence: WALDLDWFYERLVSLF

P8_MyD88 Rank (after) [3]: 200
P8_MyD88 Rank (before) [4]: 271
Sequence: WFWQKLNYAMPHLARL

Rank (after) [5]: 136
Rank (before) [6]: 147
Population [7]: 0.0112%
Sequence: SFSFPLDQLSYFLNLP

Rank (after) [10]: 949
Rank (before) [11]: 1406
Sequence: WALVKLLKILYANDTM

Population [7]: 0.0108%
Sequence: WALNELLKILYANETM

P3_MyD88 Rank (after) [3]: 212
P3_MyD88 Rank (before) [4]: 3377
Sequence: NGHESENIKEIVDTIL

Population [7]: 0.02%
Sequence: DPQDLDWFYERLVSLFL

Rank (after) [5]: 408
Rank (before) [6]: 2740
Sequence: DPQDLDCFYERLVNLF

P3_MyD88 Rank (after) [3]: 253
P3_MyD88 Rank (before) [4]: 1702
Sequence: YTALNHSGFHTFRDND
